Measured values published in ChEMBL document CHEMBL4387741, “Optimization of novel reversible Bruton's tyrosine kinase inhibitors identified using Tethering-fragment-based screens” (Bioorg Med Chem, 2019).

Experiments:
[1] = molecular target: Cyclin-dependent kinase 4 (Homo sapiens) (UniProt P11802); assay: Inhibition of wild-type human full length CDK4 (M1 to E303 residues) expressed in mammalian expression system at 1 uM by Kinomescan method relative to control
[2] = molecular target: Cyclin-dependent kinase 8 (Homo sapiens) (UniProt P49336); assay: Inhibition of wild-type human partial length CDK8 (M1 to T360 residues) expressed in bacterial expression system at 1 uM by Kinomescan method relative to control
Chain of Cyclin-dependent kinase 8 (Homo sapiens) (P49336 whole entry, the tested form may be a part): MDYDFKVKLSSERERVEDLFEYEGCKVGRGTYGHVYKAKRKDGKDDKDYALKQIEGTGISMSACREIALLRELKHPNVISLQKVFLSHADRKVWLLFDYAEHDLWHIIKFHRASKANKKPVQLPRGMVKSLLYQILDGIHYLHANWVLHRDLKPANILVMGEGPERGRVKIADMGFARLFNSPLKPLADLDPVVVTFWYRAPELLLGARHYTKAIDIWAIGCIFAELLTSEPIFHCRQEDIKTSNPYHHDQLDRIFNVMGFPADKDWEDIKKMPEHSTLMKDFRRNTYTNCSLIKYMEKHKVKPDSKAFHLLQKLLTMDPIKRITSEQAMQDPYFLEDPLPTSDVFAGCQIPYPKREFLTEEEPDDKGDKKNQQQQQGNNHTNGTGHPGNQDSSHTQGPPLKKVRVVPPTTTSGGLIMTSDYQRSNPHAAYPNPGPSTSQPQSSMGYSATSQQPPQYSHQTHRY

[3] = molecular target: Macrophage colony-stimulating factor 1 receptor (Homo sapiens) (UniProt P07333); assay: Inhibition of wild-type human partial length CSF1R (I564 to S939 residues) expressed in bacterial expression system at 1 uM by Kinomescan method relative to control
[4] = molecular target: Ephrin type-A receptor 8 (Homo sapiens) (UniProt P29322); assay: Inhibition of wild-type human partial length EPHA8 (Q608 to C920 residues) expressed in bacterial expression system at 1 uM by Kinomescan method relative to control
[5] = molecular target: Receptor tyrosine-protein kinase erbB-4 (Homo sapiens) (UniProt Q15303); assay: Inhibition of wild-type human partial length ERBB4 (L690 to K994 residues) expressed in bacterial expression system at 1 uM by Kinomescan method relative to control
[6] = molecular target: Mitogen-activated protein kinase 4 (Homo sapiens) (UniProt P31152); assay: Inhibition of wild-type human partial length ERK4 (M1 to L365 residues) expressed in bacterial expression system at 1 uM by Kinomescan method relative to control
[7] = molecular target: Focal adhesion kinase 1 (Homo sapiens) (UniProt Q05397); assay: Inhibition of wild-type human partial length FAK (D402 to R696 residues) expressed in bacterial expression system at 1 uM by Kinomescan method relative to control
[8] = molecular target: Vascular endothelial growth factor receptor 3 (Homo sapiens) (UniProt P35916); assay: Inhibition of wild-type human partial length FLT4 (E821 to E1196 residues) expressed in bacterial expression system at 1 uM by Kinomescan method relative to control
Chain of Vascular endothelial growth factor receptor 3 (Homo sapiens) (P35916 whole entry, the tested form may be a part): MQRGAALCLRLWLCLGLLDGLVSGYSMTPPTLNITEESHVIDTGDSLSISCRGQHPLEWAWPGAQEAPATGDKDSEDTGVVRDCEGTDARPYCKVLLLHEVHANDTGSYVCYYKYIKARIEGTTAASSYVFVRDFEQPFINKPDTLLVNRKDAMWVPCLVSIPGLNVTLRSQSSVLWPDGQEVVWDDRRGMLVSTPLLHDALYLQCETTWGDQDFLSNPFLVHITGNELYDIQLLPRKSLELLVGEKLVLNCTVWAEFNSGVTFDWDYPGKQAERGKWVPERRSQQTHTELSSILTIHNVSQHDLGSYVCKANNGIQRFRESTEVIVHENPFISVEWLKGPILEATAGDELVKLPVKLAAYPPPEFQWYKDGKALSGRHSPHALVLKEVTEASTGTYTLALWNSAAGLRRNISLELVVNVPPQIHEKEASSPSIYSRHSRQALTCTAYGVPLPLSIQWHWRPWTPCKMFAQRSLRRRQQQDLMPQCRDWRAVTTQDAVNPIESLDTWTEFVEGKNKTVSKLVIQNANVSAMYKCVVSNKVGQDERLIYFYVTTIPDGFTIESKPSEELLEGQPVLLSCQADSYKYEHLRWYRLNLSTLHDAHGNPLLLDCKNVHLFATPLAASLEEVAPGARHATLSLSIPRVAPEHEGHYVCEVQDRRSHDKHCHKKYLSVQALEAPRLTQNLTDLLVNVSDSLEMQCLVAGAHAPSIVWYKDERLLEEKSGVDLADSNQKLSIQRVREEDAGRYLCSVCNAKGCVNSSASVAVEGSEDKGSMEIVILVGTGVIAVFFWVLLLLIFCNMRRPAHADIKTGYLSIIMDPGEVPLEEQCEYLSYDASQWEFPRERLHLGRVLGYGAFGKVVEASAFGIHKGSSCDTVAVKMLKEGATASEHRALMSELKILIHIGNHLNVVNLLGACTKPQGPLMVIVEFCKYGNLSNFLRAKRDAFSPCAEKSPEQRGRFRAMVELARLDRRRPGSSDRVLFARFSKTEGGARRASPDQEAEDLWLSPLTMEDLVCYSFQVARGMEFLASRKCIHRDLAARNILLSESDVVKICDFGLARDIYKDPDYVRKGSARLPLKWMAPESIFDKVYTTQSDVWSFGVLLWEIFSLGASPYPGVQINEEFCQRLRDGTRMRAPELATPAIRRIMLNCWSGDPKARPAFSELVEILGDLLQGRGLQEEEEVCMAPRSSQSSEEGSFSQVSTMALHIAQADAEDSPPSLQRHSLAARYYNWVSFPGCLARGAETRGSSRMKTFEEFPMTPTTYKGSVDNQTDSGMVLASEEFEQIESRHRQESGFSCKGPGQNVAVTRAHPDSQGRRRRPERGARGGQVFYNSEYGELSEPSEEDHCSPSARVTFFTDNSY

[9] = molecular target: Tyrosine-protein kinase JAK1 (Homo sapiens) (UniProt P23458); assay: Inhibition of wild-type human partial length JAK1 JH2 pseudokinase domain (R537 to D855 residues) expressed in mammalian expression system at 1 uM by Kinomescan method relative to control
Chain of Tyrosine-protein kinase JAK1 (Homo sapiens) (P23458 whole entry, the tested form may be a part): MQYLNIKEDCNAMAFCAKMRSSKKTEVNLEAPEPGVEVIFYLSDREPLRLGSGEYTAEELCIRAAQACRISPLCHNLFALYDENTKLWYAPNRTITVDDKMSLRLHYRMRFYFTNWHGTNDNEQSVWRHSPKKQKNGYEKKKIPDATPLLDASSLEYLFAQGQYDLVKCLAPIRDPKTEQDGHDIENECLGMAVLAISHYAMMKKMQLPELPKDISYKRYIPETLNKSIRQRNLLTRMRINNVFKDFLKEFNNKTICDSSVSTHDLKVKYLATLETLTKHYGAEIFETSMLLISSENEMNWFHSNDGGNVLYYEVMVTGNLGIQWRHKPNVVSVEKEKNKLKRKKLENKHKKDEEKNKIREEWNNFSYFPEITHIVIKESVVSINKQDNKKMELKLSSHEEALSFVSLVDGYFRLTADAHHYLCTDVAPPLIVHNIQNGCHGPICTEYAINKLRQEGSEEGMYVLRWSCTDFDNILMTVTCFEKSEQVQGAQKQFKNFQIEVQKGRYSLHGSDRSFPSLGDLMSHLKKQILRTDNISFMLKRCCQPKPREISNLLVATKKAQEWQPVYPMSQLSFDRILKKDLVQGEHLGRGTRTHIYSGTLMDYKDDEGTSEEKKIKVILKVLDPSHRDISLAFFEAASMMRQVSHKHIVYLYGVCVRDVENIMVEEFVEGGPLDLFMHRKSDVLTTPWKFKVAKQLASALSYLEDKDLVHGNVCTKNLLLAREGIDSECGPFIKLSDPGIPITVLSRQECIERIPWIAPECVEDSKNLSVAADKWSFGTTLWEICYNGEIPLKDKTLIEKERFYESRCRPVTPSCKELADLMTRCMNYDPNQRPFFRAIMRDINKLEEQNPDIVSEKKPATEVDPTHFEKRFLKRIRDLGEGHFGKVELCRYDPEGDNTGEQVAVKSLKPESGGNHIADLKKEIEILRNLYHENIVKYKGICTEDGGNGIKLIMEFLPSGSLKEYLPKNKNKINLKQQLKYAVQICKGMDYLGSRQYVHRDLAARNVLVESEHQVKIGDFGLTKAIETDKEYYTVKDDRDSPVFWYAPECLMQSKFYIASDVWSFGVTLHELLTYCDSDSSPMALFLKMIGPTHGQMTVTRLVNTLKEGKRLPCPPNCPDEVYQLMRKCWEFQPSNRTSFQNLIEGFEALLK

[10] = molecular target: Dual specificity mitogen-activated protein kinase kinase 7 (Homo sapiens) (UniProt O14733); assay: Inhibition of wild-type human full length MKK7 (M1 to R419 residues) expressed in mammalian expression system at 1 uM by Kinomescan method relative to control
[11] = molecular target: Serine/threonine-protein kinase NIM1 (Homo sapiens) (UniProt Q8IY84); assay: Inhibition of wild-type human partial length NIM1 (Q44 to N355 residues) expressed in mammalian expression system at 1 uM by Kinomescan method relative to control
[12] = system: Phosphatidylinositol 4,5-bisphosphate 3-kinase catalytic subunit alpha isoform (Homo sapiens), P42336 [C420R]; assay: Inhibition of human partial length PIK3CA C420R mutant (R108 to N1068 residues) expressed in mammalian expression system at 1 uM by Kinomescan method relative to control
[13] = molecular target: Serine/threonine-protein kinase WNK1 (Homo sapiens) (UniProt Q9H4A3); assay: Inhibition of wild-type human partial length WNK1 (Q194 to A490 residues) expressed in mammalian expression system at 1 uM by Kinomescan method relative to control
[14] = system: Tyrosine-protein kinase ABL1 (Homo sapiens), P00519 [E255K]; assay: Inhibition of human phosphorylated ABL1 E255K mutant (S229 to K512 residues) expressed in mammalian expression system at 10 uM by Kinomescan method relative to control
[15] = system: Tyrosine-protein kinase ABL1 (Homo sapiens), P00519 [H396P]; assay: Inhibition of human non-phosphorylated ABL1 H396P mutant (S229 to K512 residues) expressed in mammalian expression system at 10 uM by Kinomescan method relative to control
[16] = molecular target: Serine/threonine-protein kinase 17A (Homo sapiens) (UniProt Q9UEE5); assay: Inhibition of wild-type human partial length DRAK1 (R32 to E363 residues) expressed in bacterial expression system at 10 uM by Kinomescan method relative to control
[17] = system: Receptor-type tyrosine-protein kinase FLT3 (Homo sapiens), P36888 [D835H]; assay: Inhibition of human partial length FLT3 D835H mutant (V592 to Y969 residues) expressed in bacterial expression system at 10 uM by Kinomescan method relative to control
[18] = molecular target: Homeodomain-interacting protein kinase 1 (Homo sapiens) (UniProt Q86Z02); assay: Inhibition of wild-type human partial length HIPK1 (M146 to I555 residues) expressed in mammalian expression system at 10 uM by Kinomescan method relative to control
Chain of Homeodomain-interacting protein kinase 1 (Homo sapiens) (Q86Z02 whole entry, looked up, the tested form may be a part): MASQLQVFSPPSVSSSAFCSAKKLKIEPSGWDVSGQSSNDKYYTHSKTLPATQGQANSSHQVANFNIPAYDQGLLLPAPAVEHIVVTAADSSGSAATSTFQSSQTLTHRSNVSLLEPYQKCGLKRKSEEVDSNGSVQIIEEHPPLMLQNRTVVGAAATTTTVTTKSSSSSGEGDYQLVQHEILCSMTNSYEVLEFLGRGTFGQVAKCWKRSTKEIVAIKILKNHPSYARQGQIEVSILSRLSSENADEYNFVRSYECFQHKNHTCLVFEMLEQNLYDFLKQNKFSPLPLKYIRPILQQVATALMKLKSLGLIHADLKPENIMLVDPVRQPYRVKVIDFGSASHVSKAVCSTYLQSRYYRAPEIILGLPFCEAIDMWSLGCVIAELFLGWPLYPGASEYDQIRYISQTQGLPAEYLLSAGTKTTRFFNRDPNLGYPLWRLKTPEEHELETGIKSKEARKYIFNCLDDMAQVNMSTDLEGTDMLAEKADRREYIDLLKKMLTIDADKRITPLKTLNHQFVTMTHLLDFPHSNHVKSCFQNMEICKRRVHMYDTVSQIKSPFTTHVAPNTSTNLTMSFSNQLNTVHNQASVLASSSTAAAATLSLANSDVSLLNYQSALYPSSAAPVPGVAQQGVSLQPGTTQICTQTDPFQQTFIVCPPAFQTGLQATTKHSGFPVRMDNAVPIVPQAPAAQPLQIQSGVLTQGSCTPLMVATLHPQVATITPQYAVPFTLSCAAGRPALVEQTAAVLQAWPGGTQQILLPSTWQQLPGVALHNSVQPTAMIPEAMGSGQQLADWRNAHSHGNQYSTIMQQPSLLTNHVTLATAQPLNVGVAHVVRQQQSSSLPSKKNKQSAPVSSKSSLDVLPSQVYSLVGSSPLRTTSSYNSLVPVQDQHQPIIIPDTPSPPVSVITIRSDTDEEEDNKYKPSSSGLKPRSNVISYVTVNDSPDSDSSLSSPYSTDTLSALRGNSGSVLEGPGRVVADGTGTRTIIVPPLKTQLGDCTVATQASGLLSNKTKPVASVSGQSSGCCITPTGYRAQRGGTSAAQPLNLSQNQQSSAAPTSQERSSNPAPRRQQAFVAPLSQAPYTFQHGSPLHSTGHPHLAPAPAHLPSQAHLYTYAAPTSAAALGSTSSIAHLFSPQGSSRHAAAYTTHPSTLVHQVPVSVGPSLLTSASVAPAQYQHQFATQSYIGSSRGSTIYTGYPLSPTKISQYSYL

[19] = molecular target: Inhibitor of nuclear factor kappa-B kinase subunit beta (Homo sapiens) (UniProt O14920); assay: Inhibition of wild-type human full length IKK-beta (M1 to S756 residues) expressed in mammalian expression system at 10 uM by Kinomescan method relative to control
[20] = system: Mast/stem cell growth factor receptor Kit (Homo sapiens), P10721 [V559D,T670I]; assay: Inhibition of human partial length KIT V559D/T670I double mutant (Y545 to D952 residues) expressed in bacterial expression system at 10 uM by Kinomescan method relative to control
[21] = molecular target: Serine/threonine-protein kinase 24 (Homo sapiens) (UniProt Q9Y6E0); assay: Inhibition of wild-type human partial length MST3 (A30 to S311 residues) expressed in bacterial expression system at 10 uM by Kinomescan method relative to control
[22] = molecular target: Cyclin-dependent kinase 18 (Homo sapiens) (UniProt Q07002); assay: Inhibition of wild-type human full length PCTK3 (M3 to F474 residues) expressed in bacterial expression system at 10 uM by Kinomescan method relative to control
[23] = molecular target: Phosphatidylinositol 5-phosphate 4-kinase type-2 beta (Homo sapiens) (UniProt P78356); assay: Inhibition of wild-type human full length PIP5K2B (M1 to T416 residues) expressed in bacterial expression system at 10 uM by Kinomescan method relative to control
[24] = molecular target: Serine/threonine-protein kinase PRP4 homolog (Homo sapiens) (UniProt Q13523); assay: Inhibition of wild-type human partial length PRP4 (D657 to I1007 residues) expressed in bacterial expression system at 10 uM by Kinomescan method relative to control
[25] = molecular target: TGF-beta receptor type-2 (Homo sapiens) (UniProt P37173); assay: Inhibition of wild-type human partial length TGFBR2 (I218 to K567 residues) expressed in bacterial expression system at 10 uM by Kinomescan method relative to control
Chain of TGF-beta receptor type-2 (Homo sapiens) (P37173 whole entry, the tested form may be a part): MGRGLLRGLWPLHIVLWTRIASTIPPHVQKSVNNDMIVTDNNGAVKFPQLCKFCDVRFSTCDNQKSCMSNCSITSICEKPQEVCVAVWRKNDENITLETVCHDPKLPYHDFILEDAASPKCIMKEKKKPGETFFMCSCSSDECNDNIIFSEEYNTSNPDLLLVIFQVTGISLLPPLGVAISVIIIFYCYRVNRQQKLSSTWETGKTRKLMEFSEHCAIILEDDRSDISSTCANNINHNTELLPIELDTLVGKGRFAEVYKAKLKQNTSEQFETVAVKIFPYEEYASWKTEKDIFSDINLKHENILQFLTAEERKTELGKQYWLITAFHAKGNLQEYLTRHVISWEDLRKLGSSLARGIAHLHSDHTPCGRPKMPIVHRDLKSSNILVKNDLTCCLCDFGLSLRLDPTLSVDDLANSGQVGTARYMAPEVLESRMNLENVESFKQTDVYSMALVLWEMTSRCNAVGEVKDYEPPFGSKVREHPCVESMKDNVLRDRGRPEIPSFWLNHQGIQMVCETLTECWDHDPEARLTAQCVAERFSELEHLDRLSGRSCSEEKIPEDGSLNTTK

[26] = molecular target: Mitogen-activated protein kinase kinase kinase 19 (Homo sapiens) (UniProt Q56UN5); assay: Inhibition of wild-type human partial length YSK4 (T1019 to H1328 residues) expressed in mammalian expression system at 10 uM by Kinomescan method relative to control

Chain of Cyclin-dependent kinase 4 (Homo sapiens) (P11802 whole entry, the tested form may be a part): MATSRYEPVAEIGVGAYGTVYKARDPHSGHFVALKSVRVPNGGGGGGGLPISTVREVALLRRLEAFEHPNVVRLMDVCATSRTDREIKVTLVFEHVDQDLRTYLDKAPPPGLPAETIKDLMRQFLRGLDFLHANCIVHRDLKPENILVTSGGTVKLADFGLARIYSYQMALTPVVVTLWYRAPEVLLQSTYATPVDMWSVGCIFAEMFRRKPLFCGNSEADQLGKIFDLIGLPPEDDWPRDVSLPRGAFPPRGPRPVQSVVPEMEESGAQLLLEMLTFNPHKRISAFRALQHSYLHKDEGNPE

SMILES: O=C(Nc1cccc([C@@H]2CN(c3ncnc4[nH]ccc34)CCN2CCO)c1)Nc1c(F)cccc1N1CCCC1
- inhibition [1]: 100%
- inhibition [2]: 84%
- inhibition [3]: 67%
- inhibition [4]: 100%
- inhibition [5]: 100%
- inhibition [6]: 100%
- inhibition [7]: 90%
- inhibition [8]: 16%
- inhibition [9]: 75%
- inhibition [10]: 74%
- inhibition [11]: 93%
- inhibition [12]: 89%
- inhibition [13]: 74%

SMILES: O=C(Nc1cccc([C@H]2CCCN(c3ncnc4[nH]ccc34)C2)c1)Nc1ccccc1N1CCCC1
- inhibition [14]: 35%
- inhibition [15]: 12%
- inhibition [16]: 46%
- inhibition [17]: 1.3%
- inhibition [18]: 61%
- inhibition [19]: 25%
- inhibition [20]: 0.3%
- inhibition [21]: 56%
- inhibition [22]: 70%
- inhibition [23]: 4.7%
- inhibition [24]: 17%
- inhibition [25]: 100%
- inhibition [26]: 2.3%
